This is an account of results in US9963701B2, “Pharmaceutical composition for treatment of radiation- or drug-resistant cancer comprising HRP-3 inhibitor” (KOREA INSTITUTE OF RADIOLOGICAL & MEDICAL SCIENCES, priority 2013, dated 2018).

The structures appear in SMILES notation. “Also recorded” adds a separate entry of the source.

What all share (assay type): cell-based, human
One test relates to HRP-3. The experiment in a line: HRP-3 protein level after radiation or drug treatment in H1299 cells (Western blot). As to conditions: 0.1 μg/ml doxorubicin or 5 ng/ml vinblastine. Here is the method:
While H1299 cells were cultured in RPMI-1640 medium, the cells were radiated with 10 Gy of ^137Cs-rays, or the cell culture was treated with 0.1 μg/ml doxorubicin or 5 ng/ml vinblastine, and the change in the expression level of HRP-3 as a function of time for a culture time of 48 hours was analyzed by Western blotting or immunofluorescence staining (FIGS. 6D and 6E).
In general terms: Immunoblotting shows a protein as a band on a membrane.

A further test relates to H1299 cells. Briefly: Apoptosis by FACS analysis in H1299 cells. Particulars: 0.1 μg/ml doxorubicin or 5 ng/ml vinblastine, 48 hours. On the procedure:
(§1) Specifically, while each type of H460 cells and H1299 cells were inoculated into a culture dish at a density of 3.5×10^5 cells/cm^2 and cultured in RPMI-1640 medium, each type of cell was radiated with 0 and 10 Gy of ^137Cs-rays, or the cell culture was treated with 0 and 0.1 μg/ml of doxorubicin or 0 and 5 ng/ml of vinblastine (Sigma, St. Louis, Mo., USA) and cultured. Next, the death rate of the cells was determined by FACS analysis according to a known method (M. J. Kim, et al., Cancer Lett, 339:15-24, 2013) (FIG. 7A).
The inhibition of HRP-3 expression in H1299 cells was performed according to the method in Example 6-2, and the H1299 cells, which were inhibited of HRP-3 expression, were subjected to anticancer treatment (radiation, doxorubicin treatment or vinblastine treatment), and their apoptotic rate was measured (FIG. 7D).
The morphological change and apoptotic rate of H1299 cells were measured in the same manner as described in Example 6-4, except that radiation alone was performed as anticancer treatment (FIG. 8A).
On the technique in general: Flow cytometry measures light scatter and fluorescence of single cells or particles in a stream.

The next test deals with A549 cells. The experiment in a line: Apoptosis by FACS analysis (annexin V / propidium iodide) in A549 cells. Particulars: 0.1 μg/ml doxorubicin or 5 ng/ml vinblastine, 48 hours. Here is the method:
(§2) Human NSCLC cell lines (A549 and H460) were purchased from the ATCC and cultured in RPMI-1640 medium containing 10% FBS, 50 μg/ml streptomycin, and 50 units/ml penicillin. The cultured cells were irradiated using a ^137Cs-ray source (Atomic Energy of Canada, Ltd., Canada) at a dose rate of 3.81 Gy/min and were treated with 0.1 μg/ml doxorubicin or 5 ng/ml vinblastine. The treated cells were treated with trypsin, washed with PBS, stained with annexin V and propidium iodide, and then analyzed by FACS using a flow cytometer to measure apoptosis (FIG. 1A).
In addition, A549 cells were transfected with 100 nM scrambled siRNA or HRP-3 siRNA and cultured for 2 days. Then, changes in the morphology of the cells were observed under an optical microscope, and the death rate of the cells was measured by FACS analysis (FIG. 2D). Also, the levels of two apoptotic markers (cleaved PARP and active caspase-3) were determined by Western blotting (FIG. 2E).
In order to examine this correlation, the effect of HRP-3 in the A549 cells treated with radiation or the drug was analyzed. Specifically, A549 cells were transfected with 100 nM scrambled siRNA or HRP-3 siRNA, and then treated with 10 Gy radiation, 0.1 μg/ml doxorubicin or 5 ng/ml vinblastine and cultured. The death rate of the cultured cells was determined by FACS analysis (FIG. 3B).

For another test, the system named is H460 cells. The experiment in a line: Apoptosis by FACS analysis in H460 cells. Particulars: 0.1 μg/ml doxorubicin or 5 ng/ml vinblastine, 48 hours. On the procedure:
as §2, §1

For another test, the system named is IκB, c-Myc, Noxa. The experiment in a line: Western blot of IκB, c-Myc, Noxa in H1299 cells. As to conditions: siHRP-3-treated H1299 cells. On the procedure: Specifically, a cell lysate obtained by lysing the scrambled siRNA- or siHRP-3-treated H1299 cells cultured in Example 6-2 was analyzed by Western blot using anti-HRP-3 antibodies, anti-IκB antibodies (Santa Cruz Biotechnology Inc., Santa Cruz, Calif., USA), anti-c-Myc antibodies (Calbiochem, San Diego, Calif., USA) and anti-Noxa antibodies (Calbiochem, San Diego, Calif., USA). Herein, β-actin was used as a loading control (FIG. 9A; left). As control cells, H1299 cells were treated with scrambled siRNA alone.
H1299 cells subjected to the inhibition of HRP-3 expression and radiation were obtained in the same manner as described in Example 6-4, except that radiation alone, was performed as anticancer treatment. The thus obtained H1299 cells were lysed to obtain a cell lysate. The expression levels of IκB, c-Myc and Noxa were measured in the same manner as described in Example 8-1, except that the thus obtained lysate was used, and NF-κB activity was also measured in the same manner as described in Example 8-1 (FIG. 9B). As control cells, H1299 cells treated with scrambled siRNA alone were used.
The thus obtained cells were lysed to obtain a cell lysate. The expression levels of IκB, c-Myc and Noxa were measured by Western blot analysis in the same manner as described in Example 8-1, except that the cell lysate was used. Also, NF-κB activity was measured by a reporter gene assay (FIG. 9C). […]

A further test deals with NF-κB. Briefly: NF-κB reporter gene assay (pNF-κB-luc) in H1299 cells. As to conditions: siHRP-3-treated H1299 cells, 2 μM BAY 11-7082, 48 hours. Here is the method:
In addition, the activity of NF-κB in the scrambled siRNA- or siHRP-3-treated H1299 cells was measured by a reporter gene assay using Dual-Reporter™. Specifically, H1299 cells were transfected with 0.5 μg plasmid DNA (pNF-κB-luc; Stratagene, Cambridge, UK) in Dual-Reporter™, and then the luciferase activity in the cells was measured using a luminometer, and the activity of NF-κB was measured at various protein concentrations (FIG. 9A; right).

Test [1] relates to p53, pp53, PUMA, cleaved PARP. The experiment in a line: Western blot of cleaved PARP, p53, pp53, PUMA in A549 cells. As to conditions: siHRP-3-transfected A549 cells, 1 mM NAC. From the text:
Additionally, the effect of p53 on the induction of apoptosis was examined. […] Next, the levels of HRP-3, cleaved PARP, p53, pp53, and PUMA proteins produced in the cells were detected by Western blot analysis (FIG. 5D).

Test [2] relates to ROS. Briefly: ROS production by FACS analysis using DCF-DA in A549 cells. As to conditions: 1 mM NAC, 48 hours. On the procedure:
Thus, it was predicted that HRP-3 would influence ROS production, and the following experiment was performed in order to confirm this prediction. […] The level of ROS produced in the cells was determined by FACS analysis using 10 nM DCF-DA (FIG. 4C).
Further, A549 cells were transfected with 100 nM scrambled siRNA or HRP-3 siRNA without or with exposure to 10 Gy radiation and cultured, and the level of ROS produced in the cells was assessed by FACS analysis using 10 nM DCF-DA (FIG. 4D).

Test [3] deals with ROS. Briefly: ROS production by DCF-DA (confocal, FACS) in H1299 cells. Particulars: 3 mM NAC. On the procedure: According to a known method, the thus obtained H1299 cells were treated with 10 nM DCF-DA (2′,7′-dichlorofluorescein diacetate) for 20 minutes, and the produced ROS was detected (M. J. Kim, et al., Cancer Lett, 339:15-24, 2013) (FIG. 8D). The detection of ROS was performed by observing the DCF-DA-stained cells with a laser scanning confocal microscope and analyzing the DCF-DA-stained cells by FACS analysis to determine the production of ROS.

With `CC[C@]1(O)C[C@@H]2CN(CCc3c([nH]c4ccccc34)[C@@](C(=O)OC)(c3cc4c(cc3OC)N(C)[C@H]3[C@@](O)(C(=O)OC)[C@H](OC(C)=O)[C@]5(CC)C=CCN6CC[C@]43[C@@H]65)C2)C1` [vinblastine], the “time after treatment at which level of HRP-3 peaked” value in the test with HRP-3 amounted to 12 h. For the same compound, the apoptotic rate entry in the test on H1299 cells is “about 26%”; in the test on H460 cells, “about 43%”. Further, the “resistance of A549 cells compared to H460 cells (apoptosis)” value with A549 cells was “higher levels of resistance”.

For `COc1cccc2c1C(=O)c1c(O)c3c(c(O)c1C2=O)C[C@@](O)(C(=O)CO)C[C@@H]3O[C@H]1C[C@H](N)[C@H](O)[C@H](C)O1` [doxorubicin], in the test with HRP-3, the “time after treatment at which level of HRP-3 peaked” value turned out to be 12 h. In addition, the apoptotic rate entry with H1299 cells is listed as “about 23%”; in the test on H460 cells, “about 39%”. Also, in the test on A549 cells, the “resistance of A549 cells compared to H460 cells (apoptosis)” value is given as “higher levels of resistance”.

Take `Cc1ccc(S(=O)(=O)/C=C/C#N)cc1` [BAY 11-7082]: the “IκB, c-Myc and Noxa expression changes due to inhibition of HRP-3 expression” value with IκB, c-Myc, Noxa (2 μM BAY 11-7082, 48 hours) was “levels similar to the control cells”. The “increase in NF-κB activity due to inhibition of HRP-3 expression” value in the test on NF-κB is “levels similar to the control cells”.

Consider `CC(=O)N[C@@H](CS)C(=O)O` [NAC, N-acetyl cysteine], for which the “IκB, c-Myc and Noxa expression changes due to inhibition of HRP-3 expression” value in the test with IκB, c-Myc, Noxa (3 mM NAC, 48 hours) is recorded as “levels similar to the control cells”. In test [1], the “induction of cleaved PARP by HRP-3 deletion” value is recorded as “significantly decreased”; the “p53 and PUMA levels” value is recorded as “dramatically decreased”. Moreover, the “effect on ROS generation induced by inhibition of HRP-3 expression” value in the test with ROS [2] was “reduced; also recorded: inhibited”. In the test on ROS [3], the “ROS production after inhibition of HRP-3 expression and radiation” value is “decreased to that of control cells”.
